The text below walks through data of PubChem BioAssay (NCI).

Molecules are shown by their SMILES. Values joined by “and” are separate entries in the source; they are usually repeats but may differ in a detail not shown here. Identical values can stand only once.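 Exposure lasted 48 hours, with cells grown in 96-well plates and compounds tested at five concentrations. At the GI50, growth is halved. TGI: concentration producing complete growth inhibition.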

Among the test systems are OVCAR-3 ovarian; NCI/ADR-RES ovarian; MOLT-4 leukemia; SN12C renal; SK-MEL-2 melanoma; SK-MEL-28 melanoma; SF-295 CNS; HCT-15 colon; IGROV1 ovarian; SR leukemia.
Holding throughout (test): NCI anticancer screen, dose series, 48 h

For `Cn1nnc2c(C(N)=O)ncn2c1=O`, the TGI in the assay on OVCAR-3 ovarian, in the assay on NCI/ADR-RES ovarian, with MOLT-4 leukemia, in the assay with SN12C renal, in the assay with SK-MEL-2 melanoma and in the assay on SK-MEL-28 melanoma was over 100 µM in each case. Moreover, the TGI in the assay with SF-295 CNS, in the assay on HCT-15 colon, in the assay with IGROV1 ovarian and in the assay on SR leukemia was over 100 µM each time.
As to `COc1cc(/C=C/[N+](=O)[O-])cc(OC)c1OC`, the GI50 in the assay with OVCAR-3 ovarian is 2.81 µM; in the assay on NCI/ADR-RES ovarian, 3.43 µM; in the assay on MOLT-4 leukemia, 4.56 µM; in the assay on SN12C renal, 2.51 µM; with SK-MEL-2 melanoma it was 3.05 µM; in the assay on SK-MEL-28 melanoma, 2.23 µM. For the same compound, the GI50 is 8.52 µM with SF-295 CNS, 1.96 µM in the assay on HCT-15 colon, 2.45 µM in the assay with IGROV1 ovarian and 3.36 µM with SR leukemia. For the same compound, the TGI in the assay on OVCAR-3 ovarian turned out to be 6.63 µM; in the assay with NCI/ADR-RES ovarian it was 36.7 µM; with MOLT-4 leukemia, 34.1 µM; in the assay with SN12C renal, 9.26 µM; in the assay with SK-MEL-2 melanoma, 7.11 µM; with SK-MEL-28 melanoma, 4.9 µM. Besides, the TGI worked out at 23.8 µM with SF-295 CNS, 5.04 µM in the assay with HCT-15 colon, 7.61 µM with IGROV1 ovarian and 12.5 µM with SR leukemia.
With `Cc1c2ccncc2c(C)c2c1c1cc(CO)ccc1n2C`, the GI50 in the assay on OVCAR-3 ovarian is 0.498 µM; in the assay on NCI/ADR-RES ovarian, 0.551 µM; in the assay on MOLT-4 leukemia, 0.368 µM; in the assay with SN12C renal, 0.442 µM; in the assay with SK-MEL-2 melanoma it was 0.819 µM; with SK-MEL-28 melanoma, 1.82 µM. Further, the GI50 in the assay on SF-295 CNS was 0.383 µM; in the assay with HCT-15 colon, 0.354 µM; in the assay with IGROV1 ovarian, 0.214 µM; with SR leukemia, 0.268 µM. Besides, the TGI was determined as 2.32 µM in the assay with OVCAR-3 ovarian; 7.5 µM in the assay with NCI/ADR-RES ovarian; 2.13 µM in the assay on MOLT-4 leukemia; 5.35 µM in the assay on SN12C renal; 2.54 µM with SK-MEL-2 melanoma; 6.5 µM in the assay on SK-MEL-28 melanoma. The TGI in the assay with SF-295 CNS came out at 2.5 µM; in the assay on HCT-15 colon it was 10 µM; in the assay with IGROV1 ovarian, 1.76 µM; in the assay on SR leukemia it was 2.65 µM.
For `CCN(CC)C(=S)SSC(=S)N(CC)CC`, the GI50 in the assay on OVCAR-3 ovarian is 15.1 µM and 15.3 µM; in the assay on NCI/ADR-RES ovarian, 18.1 µM and 17.6 µM; with MOLT-4 leukemia it was 17.7 µM and 16 µM; in the assay on SN12C renal, 15 µM and 15.5 µM; with SK-MEL-2 melanoma, 26.3 µM and 82.2 µM; with SK-MEL-28 melanoma it was 15.8 µM and 26.8 µM. For the same compound, the GI50 is 11.4 µM and 50.8 µM in the assay with SF-295 CNS; 20.1 µM and 20.9 µM in the assay with HCT-15 colon; 142 µM with IGROV1 ovarian; 0.785 µM in the assay on SR leukemia. The TGI was 32.5 µM and 29.4 µM in the assay with OVCAR-3 ovarian; 39.9 µM and 37.9 µM in the assay with NCI/ADR-RES ovarian; 46.6 µM and 48.5 µM in the assay on MOLT-4 leukemia; 29.3 µM and 31.9 µM with SN12C renal; 71.1 µM and 297 µM in the assay with SK-MEL-2 melanoma; 35.4 µM and 97.5 µM with SK-MEL-28 melanoma. The TGI in the assay with SF-295 CNS is > 50.2 µM and 278 µM; in the assay on HCT-15 colon it was > 56.6 µM and 59.8 µM; with IGROV1 ovarian, 543 µM; in the assay on SR leukemia, 34.4 µM.
Turning to `CCN1C(=O)N(CC)C2C1NN=c1s/c(=C\c3ccc[nH]3)c(=O)n12` (stereo unspecified), the GI50 in the assay on OVCAR-3 ovarian was 0.279 µM; with NCI/ADR-RES ovarian, 0.413 µM; in the assay with MOLT-4 leukemia, 0.543 µM; in the assay with SN12C renal, 0.991 µM; in the assay with SK-MEL-2 melanoma, 0.502 µM; in the assay on SF-295 CNS it was 0.334 µM. Moreover, the GI50 is 0.337 µM in the assay on HCT-15 colon, 0.838 µM in the assay with IGROV1 ovarian and 0.148 µM in the assay on SR leukemia. The TGI is 0.948 µM in the assay with OVCAR-3 ovarian; over 100 µM in the assay with NCI/ADR-RES ovarian; over 100 µM with MOLT-4 leukemia; over 100 µM in the assay on SN12C renal; over 100 µM with SK-MEL-2 melanoma; over 100 µM in the assay with SK-MEL-28 melanoma. The TGI in the assay with SF-295 CNS is over 40.3 µM; in the assay with HCT-15 colon it was over 100 µM; in the assay with IGROV1 ovarian it was over 100 µM; in the assay on SR leukemia, over 38.2 µM.
On to `C[C@@H]1COCCN1c1cc(-c2ccnn2C)c2ccnc(-c3ccn[nH]3)c2n1`, for which the GI50 in the assay with OVCAR-3 ovarian is 0.223 µM and 0.406 µM; in the assay on NCI/ADR-RES ovarian, 0.101 µM and 0.28 µM; in the assay with MOLT-4 leukemia, 0.0319 µM and 0.0751 µM; in the assay on SN12C renal, 0.184 µM and 0.314 µM; with SK-MEL-2 melanoma it was 0.064 µM and 0.161 µM; in the assay on SK-MEL-28 melanoma, 0.361 µM and 0.777 µM. Further, the GI50 was 0.057 µM and 0.11 µM in the assay on SF-295 CNS; 0.0344 µM and 0.0968 µM in the assay on HCT-15 colon; 0.0715 µM and 0.195 µM in the assay on IGROV1 ovarian; 0.0241 µM and 0.103 µM with SR leukemia. For the same compound, the TGI with NCI/ADR-RES ovarian was 2.43 µM and 4.78 µM; with MOLT-4 leukemia, 9.08 µM; in the assay on SN12C renal it was over 100 µM; in the assay with SK-MEL-2 melanoma, 0.734 µM and 1.85 µM; with SK-MEL-28 melanoma it was 4.2 µM and 16.8 µM; in the assay with SF-295 CNS, 0.648 µM and 1.15 µM. In addition, in the assay on HCT-15 colon, the TGI was over 100 µM.
As to `CCN(CC)C(=O)COc1cc2c(O)c3c(O)c(C)c4c(c13)C(=O)C(C)(OC=CC(OC)C(C)C(OC(C)=O)C(C)C(O)C(C)C(O)C(C)C=CC=C(C)C(=O)N2)O4` (stereo unspecified), the TGI in the assay with OVCAR-3 ovarian, in the assay with NCI/ADR-RES ovarian, with MOLT-4 leukemia, in the assay on SN12C renal, with SK-MEL-2 melanoma and with SK-MEL-28 melanoma was over 100 µM throughout. Moreover, the TGI in the assay on SF-295 CNS, with HCT-15 colon, in the assay with IGROV1 ovarian and with SR leukemia was over 100 µM throughout.
For `Nc1ncccc1-c1nc2ccc(-c3ccccc3)nc2n1-c1ccc(C2(N)CCC2)cc1`, the GI50 with OVCAR-3 ovarian is 0.353 µM; in the assay on NCI/ADR-RES ovarian it was 2.43 µM; in the assay on MOLT-4 leukemia it was 0.188 µM; with SN12C renal it was 2.29 µM; with SK-MEL-2 melanoma, 1.65 µM; with SK-MEL-28 melanoma, 1.2 µM. Further, the GI50 was 0.256 µM with SF-295 CNS, 1.34 µM in the assay with HCT-15 colon, 0.0342 µM with IGROV1 ovarian and 1.74 µM with SR leukemia. In addition, the TGI in the assay with OVCAR-3 ovarian worked out at 10.6 µM; in the assay with NCI/ADR-RES ovarian, 14.6 µM; in the assay on MOLT-4 leukemia, 7.88 µM; in the assay with SN12C renal, 13.5 µM; with SK-MEL-2 melanoma, 3.54 µM; in the assay on SK-MEL-28 melanoma, 2.66 µM. Besides, the TGI in the assay with SF-295 CNS came to 2.3 µM; with HCT-15 colon, 4.27 µM; in the assay on IGROV1 ovarian it was 0.863 µM; with SR leukemia it was 4.75 µM.
